Structures can show the parent of a compound that is named as a salt. Where two headings read alike, the source gives them in different places.

From patent US10696651B2, “Heterocyclic compound” (Takeda Pharmaceutical Company Limited, priority 2016, dated 2020) come the findings set out here.

The target in test [1] is T1, human GCN2 full-length protein (Homo sapiens, UniProt Q9P2K8).
T1 construct: purchased Carna Biosciences, Inc
Nature of the test: GCN2 enzyme inhibition assay (LanthaScreen TR-FRET). In kind it is biochemical. The following applies: GCN2 enzyme inhibitory activity at compound concentration of 3 μM, read-out: inhibitory rate. The protocol:
GCN2 enzyme was preserved at -70° C. and used. The GCN2 enzyme inhibitory activity of the test compound was measured by the LanthaScreenTR-FRET (Time Resolved Fluorescence Resonance Energy Transfer) method (manufactured by ThermoFisher). […] Then, GCN2 enzyme solution diluted with the assay buffer was added by 2 μL to each well. The enzyme solution was not added to a part of the wells to give a control group. After incubation at room temperature for 1 hr, 570 μM ATP solution containing 390 nM […] physiological protein substrate (ThermoFisher) was added by 2 μL. After reaction at room temperature for 1 hr, TR-FRET Dilution Buffer (ThermoFisher) containing 4 nM Terbium-labeled anti-elF2alpha [[…]] antibody (ThermoFisher) dissolved therein was added by 2 μL to each well. After standing at room temperature for 1 hr, time decomposition fluorescence measurement was performed on platereader Envision (manufactured by PerkinElmer).
(In general: Time-resolved FRET reads energy transfer from a long-lived donor to a nearby acceptor.)

Test [2] relates to osteosarcoma cell line U-2-OS. The test is described as follows: In vitro cell proliferation inhibition assay (CellTiter-Glo, low amino acid media). Type of test: cell-based. The settings on record: McCoy's 5A low amino acid media; for inhibition at 0.1 µM: Homo sapiens, U2OS, 72 h, cell proliferation inhibitory rate; for inhibitory rate: 72 hr. The protocol: A cell suspension (40 μL) (1000 cells/well) of osteosarcoma cell line U-2-OS obtained from ATCC (American Type Culture Collection) was seeded on a 384 plate using McCoy's 5A low amino acid media (amino acid content 25%). The seeded cells were incubated (37° C., 5% CO2) overnight to 24 hr at the longest. Each example compound was dissolved (10 mM) in DMSO, delivered to wells by using TECAN HP D300 (TECAN), and the plate was incubated for 72 hr (37° C., 5% CO2). A well without addition of compound was treated similarly as a control group. Celltiter-Glo (registered trade mark) Luminescent Cell Viability Assay reagent (Promega KK) equilibrated at room temperature was added (40 μL/well) to cells in each well before compound treatment (untreated group) and 72 hours after compound treatment. After incubation for 10 min, cell proliferation inhibitory rate was measured by the amount of ATP which is a cell viability marker. Luminescence of cells showing ATP amount was measured using ARVO MX (PerkinElmer). Based on the luminescence values of the untreatment group, the control group without addition of Example compound solution, and the treatment group with addition of Example compound, the cell proliferation inhibitory rate (%) of the test compound at a compound concentration of 100 nM was calculated by the following formula and the results thereof are shown in Tables 4-1, 4-2. Inhibitory rate (%)=(1−(luminescence value of treatment group−luminescence value of untreatment group)÷(luminescence value of control group−luminescence value of untreatment group))×100
On the technique in general: In ATP-based viability assays light output follows the ATP content of the culture.

T1 sequence (Q9P2K8 whole entry): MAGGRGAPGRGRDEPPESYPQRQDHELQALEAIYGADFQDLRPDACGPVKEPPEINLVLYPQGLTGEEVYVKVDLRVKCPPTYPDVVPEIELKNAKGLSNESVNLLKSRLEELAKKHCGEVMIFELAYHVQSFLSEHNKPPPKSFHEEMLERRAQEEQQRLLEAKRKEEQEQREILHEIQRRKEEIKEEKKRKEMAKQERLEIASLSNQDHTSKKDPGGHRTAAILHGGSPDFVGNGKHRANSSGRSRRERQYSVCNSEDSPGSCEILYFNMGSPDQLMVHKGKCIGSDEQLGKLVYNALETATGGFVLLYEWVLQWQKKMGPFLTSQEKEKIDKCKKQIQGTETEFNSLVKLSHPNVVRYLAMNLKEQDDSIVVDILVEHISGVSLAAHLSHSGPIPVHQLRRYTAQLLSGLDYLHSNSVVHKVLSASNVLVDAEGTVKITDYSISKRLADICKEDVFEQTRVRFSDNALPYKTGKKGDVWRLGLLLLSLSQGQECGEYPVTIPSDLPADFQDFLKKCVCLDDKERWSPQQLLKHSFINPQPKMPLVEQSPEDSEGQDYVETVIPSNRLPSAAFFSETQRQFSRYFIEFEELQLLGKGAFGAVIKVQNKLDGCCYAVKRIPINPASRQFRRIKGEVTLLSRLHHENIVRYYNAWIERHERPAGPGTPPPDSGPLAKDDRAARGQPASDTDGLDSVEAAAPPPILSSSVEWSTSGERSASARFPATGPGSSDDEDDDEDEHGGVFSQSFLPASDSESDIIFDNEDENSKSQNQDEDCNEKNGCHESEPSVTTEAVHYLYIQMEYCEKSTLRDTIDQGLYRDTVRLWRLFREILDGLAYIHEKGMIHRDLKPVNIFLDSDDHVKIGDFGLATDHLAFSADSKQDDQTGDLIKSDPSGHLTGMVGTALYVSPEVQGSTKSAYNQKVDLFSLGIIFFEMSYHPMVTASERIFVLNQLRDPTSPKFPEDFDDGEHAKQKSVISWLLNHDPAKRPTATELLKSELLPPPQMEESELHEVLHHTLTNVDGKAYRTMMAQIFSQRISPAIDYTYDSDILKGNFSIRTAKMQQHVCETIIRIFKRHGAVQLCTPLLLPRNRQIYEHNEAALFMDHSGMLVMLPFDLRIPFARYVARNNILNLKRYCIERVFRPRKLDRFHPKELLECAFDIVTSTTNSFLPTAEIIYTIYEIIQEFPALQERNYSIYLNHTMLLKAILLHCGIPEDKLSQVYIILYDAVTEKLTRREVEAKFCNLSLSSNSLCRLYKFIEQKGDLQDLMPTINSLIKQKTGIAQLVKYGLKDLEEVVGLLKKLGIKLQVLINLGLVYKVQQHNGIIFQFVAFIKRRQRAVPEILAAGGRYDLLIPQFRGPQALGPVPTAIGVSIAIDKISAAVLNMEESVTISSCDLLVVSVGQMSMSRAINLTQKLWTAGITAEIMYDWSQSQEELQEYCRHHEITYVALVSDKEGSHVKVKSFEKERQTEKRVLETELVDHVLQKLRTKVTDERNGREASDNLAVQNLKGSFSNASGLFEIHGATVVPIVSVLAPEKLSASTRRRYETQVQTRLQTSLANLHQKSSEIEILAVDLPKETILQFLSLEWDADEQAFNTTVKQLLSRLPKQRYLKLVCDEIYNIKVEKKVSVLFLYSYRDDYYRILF

Take `CCNc1ncc(C#Cc2c(F)ccc(NS(=O)(=O)c3cc(Cl)cc(CO)c3OC)c2F)cn1` [Example 137, 5-chloro-N-(3-((2-(ethylamino)pyrimidin-5-yl)ethynyl)-2,4-difluorophenyl)-3-(hydroxymethyl)-2-methoxybenzenesulfonamide]: the inhibition at 3 µM in test [1] (Table 3-2) was determined as 99%. In addition, in test [2] (Table 4-2), the inhibition at 0.1 µM amounted to 75%.
Consider `Nc1ncc(C#Cc2c(F)ccc(NS(=O)(=O)c3cc(Cl)cnc3OC(F)F)c2F)cn1` [Example 162, N-(3-((2-aminopyrimidin-5-yl)ethynyl)-2,4-difluorophenyl)-5-chloro-2-(difluoromethoxy)pyridine-3-sulfonamide], for which the inhibition at 3 µM in test [1] (Table 3-2) was 99%. Further, in test [2] (Table 4-2), the inhibition at 0.1 µM stood at 35%.
Consider `COc1ncc(Cl)cc1S(=O)(=O)Nc1ccc(F)c(C#Cc2cnc(N[C@H]3CC[C@H](O)CC3)nc2)c1F` [Example 174, 5-chloro-N-(2,4-difluoro-3-((2-((trans-4-hydroxycyclohexyl)amino)pyrimidin-5-yl)ethynyl)phenyl)-2-methoxypyridine-3-sulfonamide], for which the inhibition at 3 µM in test [1] (Table 3-2) was determined as 99%. Also, the inhibition at 0.1 µM in test [2] (Table 4-2) was found to be 83%.
For the compound `COc1c(Cl)cc(Cl)cc1S(=O)(=O)Nc1ccc(F)c(C#Cc2cnc3[nH]ncc3c2)c1F` [Example 33, 3,5-dichloro-N-(2,4-difluoro-3-(1H-pyrazolo[3,4-b]pyridin-5-ylethynyl)phenyl)-2-methoxybenzenesulfonamide], in test [1] (Table 3-1), the inhibition at 3 µM came to 98%. In addition, the inhibition at 0.1 µM in test [2] (Table 4-1) is 40%.
On to `O=S(=O)(Nc1ccc(F)c(C#Cc2cnc3[nH]ncc3c2)c1F)c1cc(Cl)ccc1Cl` [Example 10, 2,5-dichloro-N-(2,4-difluoro-3-(1H-pyrazolo[3,4-b]pyridin-5-ylethynyl)phenyl)benzenesulfonamide TFA Salt], for which the inhibition at 3 µM in test [1] (Table 3-1) was 99%. For the same compound, the inhibitory rate in test [2] (Table 4-1, TFA Salt) is given as 63%.
`CNc1ncc(Cl)cc1S(=O)(=O)Nc1ccc(F)c(C#Cc2cnc(N[C@H](C)CO)nc2)c1F` [Example 183, 5-chloro-N-(2,4-difluoro-3-((2-(((2R)-1-hydroxypropan-2-yl)amino)pyrimidin-5-yl)ethynyl)phenyl)-2-(methylamino)pyridine-3-sulfonamide]: the inhibition at 3 µM in test [1] (Table 3-2) was determined as 103%. The inhibition at 0.1 µM in test [2] (Table 4-2) came out at 77%.
With `O=S(=O)(Nc1ccc(F)c(C#Cc2cnc3[nH]ncc3c2)c1F)c1cc(Cl)cc(Cl)c1` [Example 25, 3,5-dichloro-N-(2,4-difluoro-3-(1H-pyrazolo[3,4-b]pyridin-5-ylethynyl)phenyl)benzenesulfonamide], the inhibition at 3 µM in test [1] (Table 3-1) was determined as 99%. In addition, in test [2] (Table 4-1), the inhibition at 0.1 µM turned out to be 44%.
With `O=S(=O)(Nc1ccc(F)c(C#Cc2cnc3[nH]ncc3c2)c1F)c1cc(Br)ccc1F` [Example 24, 5-bromo-N-(2,4-difluoro-3-(1H-pyrazolo[3,4-b]pyridin-5-ylethynyl)phenyl)-2-fluorobenzenesulfonamide TFA Salt], the inhibition at 3 µM in test [1] (Table 3-1) came to 99%. In test [2] (Table 4-1), the inhibition at 0.1 µM is 37%.
Take `O=S(=O)(Nc1ccc(F)c(C#Cc2cnc3[nH]ncc3c2)c1F)c1cc(Cl)cc(CO)c1Cl` [Example 1, 2,5-dichloro-N-(2,4-difluoro-3-(1H-pyrazolo[3,4-b]pyridin-5-ylethynyl)phenyl)-3-(hydroxymethyl)benzenesulfonamide]: the inhibition at 3 µM in test [1] (Table 3-1) was determined as 100%. The inhibition at 0.1 µM in test [2] (Table 4-1) came out at 66%.
Consider `COc1c(CO)cc(Cl)cc1S(=O)(=O)Nc1ccc(F)c(C#Cc2cnc(NCC3(O)CC3)nc2)c1F` [Example 154, 5-chloro-N-(2,4-difluoro-3-((2-(((1-hydroxycyclopropyl)methyl)amino)pyrimidin-5-yl)ethynyl)phenyl)-3-(hydroxymethyl)-2-methoxybenzenesulfonamide], for which the inhibition at 0.1 µM in test [2] (Table 4-2) was 70%.
Turning to `Cc1cc(Br)cc(S(=O)(=O)Nc2ccc(F)c(C#Cc3cnc4[nH]ncc4c3)c2F)c1` [Example 18, 3-bromo-N-(2,4-difluoro-3-(1H-pyrazolo[3,4-b]pyridin-5-ylethynyl)phenyl)-5-methylbenzenesulfonamide], the inhibition at 3 µM in test [1] (Table 3-1) amounted to 100%. Moreover, the inhibition at 0.1 µM in test [2] (Table 4-1) was determined as 63%.
With `COc1c(CO)cc(Cl)cc1S(=O)(=O)Nc1ccc(F)c(C#Cc2cnc(N[C@H]3CC[C@H](O)CC3)nc2)c1F` [Example 153, 5-chloro-N-(2,4-difluoro-3-((2-((trans-4-hydroxycyclohexyl)amino)pyrimidin-5-yl)ethynyl)phenyl)-3-(hydroxymethyl)-2-methoxybenzenesulfonamide], the inhibition at 3 µM in test [1] (Table 3-2) was found to be 99%. Moreover, the inhibition at 0.1 µM in test [2] (Table 4-2) was determined as 78%.
In the case of `Cc1ncc(Cl)cc1S(=O)(=O)Nc1ccc(F)c(C#Cc2cnc(N[C@H](C)CO)nc2)c1F` [Example 189, 5-chloro-N-(2,4-difluoro-3-((2-(((2R)-1-hydroxypropan-2-yl)amino)pyrimidin-5-yl)ethynyl)phenyl)-2-methylpyridine-3-sulfonamide], the inhibition at 3 µM in test [1] (Table 3-2) was found to be 99%. Moreover, the inhibition at 0.1 µM in test [2] (Table 4-2) amounted to 79%.
The compound `C[C@H](CO)Nc1ncc(C#Cc2c(F)ccc(NS(=O)(=O)c3cc(Cl)cc4c3OCC4O)c2F)cn1` (stereo partly drawn) [Example 187, 5-chloro-N-(2,4-difluoro-3-((2-(((2R)-1-hydroxypropan-2-yl)amino)pyrimidin-5-yl)ethynyl)phenyl)-3-hydroxy-2,3-dihydro-1-benzofuran-7-sulfonamide] gave an inhibitory rate in test [2] (Table 4-2) of 64%.
Consider `Nc1ncc(C#Cc2c(F)ccc(NS(=O)(=O)c3cc(Cl)ccc3Cl)c2F)cn1` [Example 13, N-(3-((2-aminopyrimidin-5-yl)ethynyl)-2,4-difluorophenyl)-2,5-dichlorobenzenesulfonamide TFA Salt], for which, in test [2] (Table 4-1), the inhibition at 0.1 µM came to 70%.
As for `COc1ncc(Cl)cc1S(=O)(=O)Nc1ccc(F)c(C#Cc2cnc(NCC(C)(C)O)nc2)c1F` [Example 107, 5-chloro-N-(2,4-difluoro-3-((2-((2-hydroxy-2-methylpropyl)amino)pyrimidin-5-yl)ethynyl)phenyl)-2-methoxypyridine-3-sulfonamide], the inhibition at 3 µM in test [1] (Table 3-1) amounted to 99%.
Take `CCNc1ncc(C#Cc2c(F)ccc(NS(=O)(=O)c3cc(Cl)ccc3Cl)c2F)cn1` [Example 30, 2,5-dichloro-N-(3-((2-(ethylamino)pyrimidin-5-yl)ethynyl)-2,4-difluorophenyl)benzenesulfonamide TFA Salt]: the inhibition at 3 µM in test [1] (Table 3-1) is 98%.
On the same count and under the same terms, under `N#Cc1ccc(Cl)cc1S(=O)(=O)Nc1ccc(F)c(C#Cc2cnc(N)nc2)c1F` [Example 29, N-(3-((2-aminopyrimidin-5-yl)ethynyl)-2,4-difluorophenyl)-5-chloro-2-cyanobenzenesulfonamide] stands 99%; under `O=S(=O)(Nc1ccc(F)c(C#Cc2cnc(NC3CCOC3)nc2)c1F)c1cc(Cl)ccc1Cl` (centres unmarked) [Example 16, 2,5-dichloro-N-(2,4-difluoro-3-((2-(tetrahydrofuran-3-ylamino)pyrimidin-5-yl)ethynyl)phenyl)benzenesulfonamide TFA Salt], 100%.
For `Cc1ncc(Cl)cc1S(=O)(=O)Nc1ccc(F)c(C#Cc2cnc(NC(C)C)nc2)c1F` [Example 105, 5-chloro-N-(2,4-difluoro-3-((2-(isopropylamino)pyrimidin-5-yl)ethynyl)phenyl)-2-methylpyridine-3-sulfonamide], the inhibition at 3 µM in test [1] (Table 3-1) is 100%.
As to `O=S(=O)(Nc1ccc(F)c(C#Cc2cnc(NCCO)nc2)c1F)c1cc(Cl)ccc1Cl` [Example 36, 2,5-dichloro-N-(2,4-difluoro-3-((2-((2-hydroxyethyl)amino)pyrimidin-5-yl)ethynyl)phenyl)benzenesulfonamide TFA Salt], the inhibition at 3 µM in test [1] (Table 3-1) was 99%.
Take `Cn1ncc2c(S(=O)(=O)Nc3ccc(F)c(C#Cc4cnc(N)nc4)c3F)cc(Cl)cc21` [Example 192, N-(3-((2-aminopyrimidin-5-yl)ethynyl)-2,4-difluorophenyl)-6-chloro-1-methyl-1H-indazole-4-sulfonamide]: in test [2] (Table 4-2), the inhibition at 0.1 µM was 43%.
As to `Nc1ncc(C#Cc2c(F)ccc(NS(=O)(=O)c3cc(C(F)(F)F)ccc3Cl)c2F)cn1` [Example 35, N-(3-((2-aminopyrimidin-5-yl)ethynyl)-2,4-difluorophenyl)-2-chloro-5-(trifluoromethyl)benzenesulfonamide], in test [1] (Table 3-1), the inhibition at 3 µM came to 95%.
